{"source": "patent US20220160842A1", "about": "“METHOD OF TREATING INFECTIVE ENDOCARDITIS” (priority 2019, published 2022)", "test_in_all_cases": "MIC by broth microdilution", "key": {"all staphylococci tested": {"test_system": "all staphylococci tested", "type": "cell-based", "experimental": "(§1) Daptomycin (Sigma Aldrich) and vancomycin hydrochloride (Sigma Aldrich) were tested following the reference BMD method for each. See CLSI. 2015. Methods for Dilution Antimicrobial Susceptibility Tests for Bacteria That Grow Aerobically, 10th Edition. Clinical and Laboratory Standards Institute, Wayne, Pa."}, "E. faecalis": {"test_system": "E. faecalis", "type": "cell-based, Enterococcus faecalis", "experimental": "(§2) Minimal inhibitory concentrations (MICs) of exebacase against staphylococci were determined by broth microdilution (BMD) using a nonstandard antimicrobial susceptibility testing (AST) medium comprised of cation-adjusted Mueller Hinton broth (caMHB) supplemented with horse serum (Sigma Aldrich) and dithiothreitol (DTT; Sigma Aldrich) to final concentrations of 25% and 0.5 mM, respectively. This medium, referred to as caMHB-HSD, is approved for use in exebacase AST by the Clinical and Laboratory Standards Institute (CLSI) (CLSI. 2017, Jan. 16-17. AST Subcommittee Working Group Meetings and Plenary. AST Meeting Files & Resources, clsi.org/education/microbiology/ast/ast-meeting-files-resources/. Additional supplementation with 2.5% lysed red blood cells (Remel™, ThermoFisher) was included for analyses of streptococcal isolates, as recommended by CLSI. See CLSI, 2015. Methods for Dilution Antimicrobial Susceptibility Tests for Bacteria That Grow Aerobically, 10th Edition. Clinical and Laboratory Standards Institute, Wayne, Pa.\nas §1"}, "S. gordonii": {"test_system": "S. gordonii", "type": "cell-based, Streptococcus gordonii", "experimental": "as §2, §1"}, "S. pyogenes": {"test_system": "S. pyogenes", "type": "cell-based, Streptococcus pyogenes", "experimental": "as §2, §1"}, "S. lugdunensis": {"test_system": "S. lugdunensis", "type": "cell-based, Staphylococcus lugdunensis", "experimental": "as §2, §1"}, "S. dysgalactiae": {"test_system": "S. dysgalactiae", "type": "cell-based, Streptococcus dysgalactiae", "experimental": "as §2, §1"}, "S. mitis": {"test_system": "S. mitis", "type": "cell-based, Streptococcus mitis", "experimental": "as §2, §1"}, "S. anginosus": {"test_system": "S. anginosus", "type": "cell-based, Streptococcus anginosus", "experimental": "as §2, §1"}, "S. sanguinis": {"test_system": "S. sanguinis", "type": "cell-based, Streptococcus sanguinis", "experimental": "as §2, §1"}, "S. capitis": {"test_system": "S. capitis", "type": "cell-based, Staphylococcus capitis", "experimental": "as §2, §1"}, "S. agalactiae": {"test_system": "S. agalactiae", "type": "cell-based, Streptococcus agalactiae", "experimental": "as §2, §1"}, "S. oralis": {"test_system": "S. oralis", "type": "cell-based, Streptococcus oralis", "experimental": "as §2, §1"}, "S. pneumoniae": {"test_system": "S. pneumoniae", "type": "cell-based, Streptococcus pneumoniae", "experimental": "as §2, §1"}, "S. mutans": {"test_system": "S. mutans", "type": "cell-based, Streptococcus mutans", "experimental": "as §2, §1"}, "S. salivarius": {"test_system": "S. salivarius", "type": "cell-based, Streptococcus salivarius", "experimental": "as §2, §1"}, "S. warneri": {"test_system": "S. warneri", "type": "cell-based, Staphylococcus warneri", "experimental": "as §2, §1"}, "S. haemolyticus": {"test_system": "S. haemolyticus", "type": "cell-based, Staphylococcus haemolyticus", "experimental": "as §2, §1"}, "S. gallolyticus": {"test_system": "S. gallolyticus", "type": "cell-based, Streptococcus gallolyticus", "experimental": "as §2, §1"}, "S. aureus (MRSA)": {"test_system": "S. aureus (MRSA)", "type": "cell-based, Staphylococcus aureus", "experimental": "as §2, §1"}, "S. aureus (MSSA)": {"test_system": "S. aureus (MSSA)", "type": "cell-based, Staphylococcus aureus", "experimental": "as §2, §1"}}, "note": "Structures can show the parent of a compound that is named as a salt.", "data": [{"smiles": "CN[C@H](CC(C)C)C(=O)N[C@H]1C(=O)N[C@@H](CC(N)=O)C(=O)N[C@H]2C(=O)N[C@H]3C(=O)N[C@H](C(=O)N[C@H](C(=O)O)c4cc(O)cc(O)c4-c4cc3ccc4O)[C@H](O)c3ccc(c(Cl)c3)Oc3cc2cc(c3O[C@@H]2O[C@H](CO)[C@@H](O)[C@H](O)[C@H]2O[C@H]2C[C@](C)(N)[C@H](O)[C@H](C)O2)Oc2ccc(cc2Cl)[C@H]1O", "note": "[VAN, vancomycin hydrochloride]", "values": [{"measurement": "MIC Range", "setting": "all staphylococci tested", "result": "0.5 to 4", "unit": "µg/mL"}, {"measurement": "MIC Range", "setting": "E. faecalis; E. faecalis (formerly group D), N=18", "result": "0.5 to 2", "unit": "µg/mL"}, {"measurement": "MIC50", "setting": "E. faecalis; Enterococcus faecalis", "result": 1, "unit": "µg/mL"}, {"measurement": "MIC90", "setting": "E. faecalis; Enterococcus faecalis", "result": 2, "unit": "µg/mL"}, {"measurement": "MIC Range", "setting": "S. gordonii; S. gordonii (viridans), N=11", "result": "0.5 to 1", "unit": "µg/mL"}, {"measurement": "MIC50", "setting": "S. gordonii; Streptococcus gordonii", "result": 0.5, "unit": "µg/mL"}, {"measurement": "MIC90", "setting": "S. gordonii; Streptococcus gordonii", "result": 1, "unit": "µg/mL"}, {"measurement": "MIC Range", "setting": "S. pyogenes; S. pyogenes (group A), N=100", "result": "0.25 to 0.5", "unit": "µg/mL"}, {"measurement": "MIC50", "setting": "S. pyogenes; Streptococcus pyogenes", "result": 0.5, "unit": "µg/mL"}, {"measurement": "MIC90", "setting": "S. pyogenes; Streptococcus pyogenes", "result": 0.5, "unit": "µg/mL"}, {"measurement": "MIC Range", "setting": "S. lugdunensis; S. lugdunensis, N=49", "result": "0.5 to 2", "unit": "µg/mL"}, {"measurement": "MIC50", "setting": "S. lugdunensis; Staphylococcus lugdunensis", "result": 1, "unit": "µg/mL"}, {"measurement": "MIC90", "setting": "S. lugdunensis; Staphylococcus lugdunensis", "result": 1, "unit": "µg/mL"}, {"measurement": "MIC Range", "setting": "S. dysgalactiae; S. dysgalactiae (group G), N=22", "result": "0.25 to 1", "unit": "µg/mL"}, {"measurement": "MIC50", "setting": "S. dysgalactiae; Streptococcus dysgalactiae", "result": 0.5, "unit": "µg/mL"}, {"measurement": "MIC90", "setting": "S. dysgalactiae; Streptococcus dysgalactiae", "result": 0.5, "unit": "µg/mL"}, {"measurement": "MIC Range", "setting": "S. mitis; S. mitis (viridans), N=18", "result": "0.25 to 0.5", "unit": "µg/mL"}, {"measurement": "MIC50", "setting": "S. mitis; Streptococcus mitis", "result": 0.5, "unit": "µg/mL"}, {"measurement": "MIC90", "setting": "S. mitis; Streptococcus mitis", "result": 0.5, "unit": "µg/mL"}, {"measurement": "MIC Range", "setting": "S. anginosus; S. anginosus (viridans), N=10", "result": "0.5 to 1", "unit": "µg/mL"}, {"measurement": "MIC50", "setting": "S. anginosus; Streptococcus anginosus", "result": 0.5, "unit": "µg/mL"}, {"measurement": "MIC90", "setting": "S. anginosus; Streptococcus anginosus", "result": 1, "unit": "µg/mL"}, {"measurement": "MIC Range", "setting": "S. sanguinis; S. sanguinis (viridans), N=15", "result": "0.5 to 2", "unit": "µg/mL"}, {"measurement": "MIC50", "setting": "S. sanguinis; Streptococcus sanguinis", "result": 0.5, "unit": "µg/mL"}, {"measurement": "MIC90", "setting": "S. sanguinis; Streptococcus sanguinis", "result": 0.5, "unit": "µg/mL"}, {"measurement": "MIC Range", "setting": "S. capitis; S. capitis, N=13", "result": "0.5 to 2", "unit": "µg/mL"}, {"measurement": "MIC50", "setting": "S. capitis; Staphylococcus capitis", "result": 1, "unit": "µg/mL"}, {"measurement": "MIC90", "setting": "S. capitis; Staphylococcus capitis", "result": 1, "unit": "µg/mL"}, {"measurement": "MIC Range", "setting": "S. agalactiae; S. agalactiae (group B), N=97", "result": "0.25 to 0.5", "unit": "µg/mL"}, {"measurement": "MIC50", "setting": "S. agalactiae; Streptococcus agalactiae", "result": 0.5, "unit": "µg/mL"}, {"measurement": "MIC90", "setting": "S. agalactiae; Streptococcus agalactiae", "result": 0.5, "unit": "µg/mL"}, {"measurement": "MIC Range", "setting": "S. oralis; S. oralis (viridans), N=15", "result": "0.5 to 1", "unit": "µg/mL"}, {"measurement": "MIC50", "setting": "S. oralis; Streptococcus oralis", "result": 0.5, "unit": "µg/mL"}, {"measurement": "MIC90", "setting": "S. oralis; Streptococcus oralis", "result": 1, "unit": "µg/mL"}, {"measurement": "MIC Range", "setting": "S. pneumoniae; S. pneumoniae, N=59", "result": "0.25 to 0.5", "unit": "µg/mL"}, {"measurement": "MIC50", "setting": "S. pneumoniae; Streptococcus pneumoniae", "result": 0.25, "unit": "µg/mL"}, {"measurement": "MIC90", "setting": "S. pneumoniae; Streptococcus pneumoniae", "result": 0.5, "unit": "µg/mL"}, {"measurement": "MIC Range", "setting": "S. mutans; S. mutans (viridans), N=22", "result": "0.25 to 1", "unit": "µg/mL"}, {"measurement": "MIC50", "setting": "S. mutans; Streptococcus mutans", "result": 1, "unit": "µg/mL"}, {"measurement": "MIC90", "setting": "S. mutans; Streptococcus mutans", "result": 1, "unit": "µg/mL"}, {"measurement": "MIC Range", "setting": "S. salivarius; S. salivarius (viridans), N=12", "result": "0.25 to 0.5", "unit": "µg/mL"}, {"measurement": "MIC50", "setting": "S. salivarius; Streptococcus salivarius", "result": 0.5, "unit": "µg/mL"}, {"measurement": "MIC90", "setting": "S. salivarius; Streptococcus salivarius", "result": 0.5, "unit": "µg/mL"}, {"measurement": "MIC Range", "setting": "S. warneri; S. warneri, N=23", "result": "0.25 to 2", "unit": "µg/mL"}, {"measurement": "MIC50", "setting": "S. warneri; Staphylococcus warneri", "result": 1, "unit": "µg/mL"}, {"measurement": "MIC90", "setting": "S. warneri; Staphylococcus warneri", "result": 2, "unit": "µg/mL"}, {"measurement": "MIC Range", "setting": "S. haemolyticus; S. haemolyticus, N=36", "result": "0.5 to 4", "unit": "µg/mL"}, {"measurement": "MIC50", "setting": "S. haemolyticus; Staphylococcus haemolyticus", "result": 1, "unit": "µg/mL"}, {"measurement": "MIC90", "setting": "S. haemolyticus; Staphylococcus haemolyticus", "result": 2, "unit": "µg/mL"}, {"measurement": "MIC Range", "setting": "S. gallolyticus; S. gallolyticus (bovis), N=19", "result": "0.25 to 0.5", "unit": "µg/mL"}, {"measurement": "MIC50", "setting": "S. gallolyticus; Streptococcus gallolyticus", "result": 0.25, "unit": "µg/mL"}, {"measurement": "MIC90", "setting": "S. gallolyticus; Streptococcus gallolyticus", "result": 0.5, "unit": "µg/mL"}, {"measurement": "MIC Range", "setting": "S. aureus (MRSA); S. aureus (MRSA), N=74", "result": "1 to 2", "unit": "µg/mL"}, {"measurement": "MIC50", "setting": "S. aureus (MRSA); Staphylococcus aureus, MRSA", "result": 1, "unit": "µg/mL"}, {"measurement": "MIC90", "setting": "S. aureus (MRSA); Staphylococcus aureus, MRSA", "result": 1, "unit": "µg/mL"}, {"measurement": "MIC Range", "setting": "S. aureus (MSSA); S. aureus (MSSA), N=73", "result": "0.5 to 1", "unit": "µg/mL"}, {"measurement": "MIC50", "setting": "S. aureus (MSSA); Staphylococcus aureus, MSSA", "result": 1, "unit": "µg/mL"}, {"measurement": "MIC90", "setting": "S. aureus (MSSA); Staphylococcus aureus, MSSA", "result": 1, "unit": "µg/mL"}]}]}
